Assay results taken from PubChem BioAssay AID246 (DTP/NCI, 2004).
Several values for one entry are separate records, joined by “and”; a condition that tells them apart may be missing. Equal values may be shown once. Inconclusive results and toxic doses are left out.

System: BDF1 mice, P1081 chloroleukemia ip, survival T/C
Assay: NCI In Vivo Anticancer Drug Screen. Data for tumor model P1081 Chloroleukemia (intraperitoneal) in B6D2F1 (BDF1) mice
Conditions: endpoint: mean survival time, higher = longer survival
Protocol: The antitumor activity of compounds was measured in mice bearing transplantable tumors. Survival or tumor size were measured and the results are expressed as the measurement made in the treated group (T) divided by the measurement made in the vehicle treated control group (C). The tumor model used in this assay is P1081 Chloroleukemia (intraperitoneal) in B6D2F1 (BDF1) mice

[1] = dose: 25.0 mg/kg/injection, schedule: Q01DX Z (ip), vehicle: carboxymethylcellulose (CMC)
[2] = dose: 6.0 mg/kg/injection, schedule: Q01DX010 (ip), vehicle: saline
[3] = dose: 6.25 mg/kg/injection, schedule: Q01DX Z (ip), vehicle: carboxymethylcellulose (CMC)
[4] = dose: 12.0 mg/kg/injection, schedule: Q01DX010 (ip), vehicle: saline
[5] = dose: 2.5 mg/kg/injection, schedule: Q01DX010 (ip), vehicle: saline
[6] = dose: 5.0 mg/kg/injection, schedule: Q01DX010 (ip), vehicle: saline
[7] = dose: 10.0 mg/kg/injection, schedule: Q01DX010 (ip), vehicle: saline
[8] = dose: 20.0 mg/kg/injection, schedule: Q01DX010 (ip), vehicle: saline

Q: What does the source list for `C[C@@H]1C[C@H]2CC[C@H](O2)[C@H](C)C(=O)O[C@@H](C)C[C@@H]2CC[C@@H](O2)[C@@H](C)C(=O)O[C@H](C)C[C@H]2CC[C@H](O2)[C@H](C)C(=O)O[C@@H](C)C[C@@H]2CC[C@@H](O2)[C@@H](C)C(=O)O1`?
A: T/C [1]: 107 % of control; T/C (dose: 50.0 mg/kg/injection, schedule: Q01DX Z (ip), vehicle: carboxymethylcellulose (CMC)): 109 % of control; T/C (dose: 100.0 mg/kg/injection, schedule: Q01DX Z (ip), vehicle: carboxymethylcellulose (CMC)): 100 % of control; T/C (dose: 200.0 mg/kg/injection, schedule: Q01DX Z (ip), vehicle: carboxymethylcellulose (CMC)): 93 % of control

Q: `O=C(Nc1ccc(C2=NCCN2)cc1)c1ccc(C(=O)Nc2ccc(C3=NCCN3)cc2)c(Cl)c1` was tested. Which T/C (dose: 1.8 mg/kg/injection, schedule: Q01DX Z (ip), vehicle: water) did it give?
A: 97 % of control

Q: And the T/C (dose: 7.5 mg/kg/injection, schedule: Q01DX Z (ip), vehicle: water)?
A: 97 % of control

Q: What about the T/C (dose: 60.0 mg/kg/injection, schedule: Q01DX Z (ip), vehicle: water) of the same molecule?
A: 86 % of control

Q: `CS(=O)(=O)OCCN(CCOS(C)(=O)=O)c1ccc(N=O)cc1` was tested. Which T/C (dose: 0.5 mg/kg/injection, schedule: Q01DX010 (ip), vehicle: saline) did it give?
A: 122 % of control

Q: And the T/C (dose: 1.0 mg/kg/injection, schedule: Q01DX010 (ip), vehicle: saline)?
A: 104 % of control

Q: What about the T/C (dose: 62.5 micrograms/kg/injection, schedule: Q01DX010 (ip), vehicle: saline) of the same molecule?
A: 155 % of control

Q: What about the T/C (dose: 125.0 micrograms/kg/injection, schedule: Q01DX010 (ip), vehicle: saline) of the same molecule?
A: 194 % of control

Q: And the T/C (dose: 250.0 micrograms/kg/injection, schedule: Q01DX010 (ip), vehicle: saline)?
A: 277 % of control

Q: And the T/C (dose: 500.0 micrograms/kg/injection, schedule: Q01DX010 (ip), vehicle: saline)?
A: 238 % of control

Q: What does the source list for `Nc1ncnc2[nH]ncc12`?
A: T/C (dose: 0.78 mg/kg/injection, schedule: Q01DX Z (ip), vehicle: carboxymethylcellulose (CMC)): 94 % of control; T/C (dose: 1.5 mg/kg/injection, schedule: Q01DX010 (ip), vehicle: saline): 111 % of control; T/C (dose: 1.56 mg/kg/injection, schedule: Q01DX Z (ip), vehicle: carboxymethylcellulose (CMC)): 103 % of control; T/C (dose: 3.0 mg/kg/injection, schedule: Q01DX010 (ip), vehicle: saline): 116 % of control and 100 % of control; T/C (dose: 3.12 mg/kg/injection, schedule: Q01DX Z (ip), vehicle: carboxymethylcellulose (CMC)): 112 % of control; T/C [2]: 111 % of control and 105 % of control; T/C [3]: 94 % of control; T/C [4]: 88 % of control and 105 % of control

Q: `C[C@H]1C(=O)O[C@@H]2CCN3CC=C(COC(=O)[C@](C)(O)[C@@]1(C)O)[C@H]23` was tested. Which T/C (dose: 3.13 mg/kg/injection, schedule: Q01DX010 (ip), vehicle: saline) did it give?
A: 115 % of control and 95 % of control

Q: And the T/C (dose: 6.25 mg/kg/injection, schedule: Q01DX010 (ip), vehicle: saline)?
A: 100 % of control

Q: And the T/C (dose: 7.5 mg/kg/injection, schedule: Q01DX Z (ip), vehicle: carboxymethylcellulose (CMC))?
A: 106 % of control

Q: And the T/C (dose: 12.5 mg/kg/injection, schedule: Q01DX010 (ip), vehicle: saline)?
A: 95 % of control

Q: What about the T/C (dose: 15.0 mg/kg/injection, schedule: Q01DX Z (ip), vehicle: carboxymethylcellulose (CMC)) of the same molecule?
A: 99 % of control

Q: And the T/C (dose: 25.0 mg/kg/injection, schedule: Q01DX010 (ip), vehicle: saline)?
A: 120 % of control and 95 % of control

Q: What about the T/C (dose: 30.0 mg/kg/injection, schedule: Q01DX Z (ip), vehicle: carboxymethylcellulose (CMC)) of the same molecule?
A: 101 % of control

Q: And the T/C (dose: 60.0 mg/kg/injection, schedule: Q01DX Z (ip), vehicle: carboxymethylcellulose (CMC))?
A: 106 % of control

Q: And the T/C (dose: 120.0 mg/kg/injection, schedule: Q01DX Z (ip), vehicle: carboxymethylcellulose (CMC))?
A: 153 % of control

Q: And the T/C (dose: 240.0 mg/kg/injection, schedule: Q01DX Z (ip), vehicle: carboxymethylcellulose (CMC))?
A: 103 % of control

Q: Which T/C [5] does the source give for `N=C(N)SCc1c2ccccc2c(CSC(=N)N)c2ccccc12` here?
A: 220 % of control

Q: What about the T/C [6] of the same molecule?
A: 183 % of control and 210 % of control

Q: What about the T/C [7] of the same molecule?
A: 155 % of control and 240 % of control

Q: What about the T/C [8] of the same molecule?
A: 172 % of control and 200 % of control

Q: And the T/C (dose: 40.0 mg/kg/injection, schedule: Q01DX010 (ip), vehicle: saline)?
A: 122 % of control

Q: How did the T/C [5] turn out when `CC[n+]1c(-c2ccccc2)c2cc(N)ccc2c2ccc(N)cc21` was run?
A: 165 % of control and 222 % of control

Q: What about the T/C [6] of the same molecule?
A: 190 % of control and 333 % of control

Q: And the T/C [8]?
A: 100 % of control

Q: How did the T/C [2] turn out when `O=C(Nc1ccc(C2=NCCN2)cc1)c1ccc(C(=O)Nc2ccc(C3=NCCN3)cc2)c([N+](=O)[O-])c1` was run?
A: 260 % of control and 288 % of control

Q: What about the T/C (dose: 8.0 mg/kg/injection, schedule: Q01DX010 (ip), vehicle: saline) of the same molecule?
A: 285 % of control and 311 % of control

Q: And the T/C [4]?
A: 166 % of control and 250 % of control

Q: What about the T/C (dose: 18.0 mg/kg/injection, schedule: Q01DX010 (ip), vehicle: saline) of the same molecule?
A: 120 % of control and 122 % of control

Q: Which results are given for `N#Cc1cn(C2OC(CO)C(O)C2O)c2ncnc(N)c12` (configuration not stated)?
A: T/C (dose: 0.03 mg/kg/injection, schedule: Q01DX Z (ip), vehicle: carboxymethylcellulose (CMC)): 97 % of control; T/C (dose: 0.06 mg/kg/injection, schedule: Q01DX Z (ip), vehicle: carboxymethylcellulose (CMC)): 103 % of control; T/C (dose: 0.12 mg/kg/injection, schedule: Q01DX Z (ip), vehicle: carboxymethylcellulose (CMC)): 103 % of control; T/C (dose: 0.25 mg/kg/injection, schedule: Q01DX Z (ip), vehicle: carboxymethylcellulose (CMC)): 88 % of control; T/C (dose: 0.5 mg/kg/injection, schedule: Q01DX Z (ip), vehicle: carboxymethylcellulose (CMC)): 94 % of control

Q: With `S=P(N1CCOCC1)(N1CC1)N1CC1` as the molecule, how does the T/C [5] read?
A: 116 % of control and 100 % of control

Q: And the T/C [6]?
A: 105 % of control and 100 % of control

Q: And the T/C [3]?
A: 93 % of control

Q: And the T/C [7]?
A: 110 % of control and 122 % of control

Q: What about the T/C [8] of the same molecule?
A: 105 % of control

Q: Which results are given for `O=c1cnn(C2OC(CO)C(O)C2O)c(=O)[nH]1` (configuration not stated)?
A: T/C (dose: 62.5 mg/kg/injection, schedule: Q01DX Z (ip), vehicle: water): 94 % of control; T/C (dose: 125.0 mg/kg/injection, schedule: Q01DX Z (ip), vehicle: water): 120 % of control and 90 % of control; T/C (dose: 250.0 mg/kg/injection, schedule: Q01DX Z (ip), vehicle: water): 116 % of control and 121 % of control; T/C (dose: 500.0 mg/kg/injection, schedule: Q01DX Z (ip), vehicle: water): 120 % of control; T/C (dose: 1000.0 mg/kg/injection, schedule: Q01DX Z (ip), vehicle: water): 92 % of control; T/C (dose: 1600.0 mg/kg/injection, schedule: Q01DX010 (ip), vehicle: saline): 100 % of control

Q: Which results are given for `C[n+]1c2ccccc2nc2c(N)cc(N)cc21`?
A: T/C (dose: 1.6 mg/kg/injection, schedule: Q01DX Z (ip), vehicle: carboxymethylcellulose (CMC)): 100 % of control; T/C (dose: 12.5 mg/kg/injection, schedule: Q01DX Z (ip), vehicle: carboxymethylcellulose (CMC)): 110 % of control; T/C [1]: 101 % of control
